Reference: patent publication US20250177473A1, “PEPTIDE REGULATORS OF METABOLISM” (Metabico, Inc., priority 2022, published 2025)

Key:
[1] = test system: C57BL/6 mice on a high-fat diet; assay: Blood serum glucose, HOMA-IR and TNF-α after chronic administration in HFD mice; assay type: in vivo, mouse; details: metformin 250 mg/kg p.o.
Procedure: (§1) Groups of 10 animals were formed from the existing groups from Stage 2, with similar mean body weight (Table 6). The animals' bodyweight was monitored three times a week, water, and feed consumption—weekly. After the last treatment, the animals were euthanized for necropsy and their blood collected. The internal organs were examined for the presence of macro damage and weighed. The adipose tissue surrounding the epididymis was evaluated as a marker of obesity in animals. For histological examination, samples of adipose tissue and liver tissue were fixed in 10% formalin solution for further histological analysis.
At the end of the study, the animals were euthanized. […]
Blood serum was analyzed for glucose concentration using the Randox GB reagent kit on an automatic biochemical analyzer Sapphire-400 (Tokyo Boeki LTD, Japan), following the manufacturer's instructions.
Insulin concentration in blood serum samples was measured by enzyme immunoassay using a standard commercial kit, following the manufacturer's instructions. […] Based on the obtained data on the concentration of insulin and glucose measured in animals before necropsy, the derived parameter of insulin resistance HOMA-IR was calculated using the formula: […]
The concentration of proinflammatory cytokine TNFa and IL1 was measured in blood serum samples by ELISA using standard commercial kits, following the manufacturer's instructions. […]

[2] = test system: C57BL/6 mice on a high-fat diet; assay: Chronic 28-day administration in HFD mice: bodyweight, water and feed consumption; assay type: in vivo, mouse; details: for Weekly food consumption / Weekly water consumption: Metformin 250 mg/kg p.o. daily
Procedure: A standard laboratory rodent pellet SNIFF RI/M-H V1534-30 (58% carbohydrates, 9% fat, 33% protein, 306 kcal/100 g) was given ad libitum to the control animals. For HFD groups, the high-fat feed was used. For 1 kg of feed, 610 g of ground SNIFF feed and 360 g of melted pork lard were taken, water (˜250 ml, 60-70° C.), 10 g of sodium chloride, 30 g of sodium glutamate were added. The mixture was brewed to a dough consistency, and food granules were formed. Then the granules were dried at 60-70° C. for 10-12 hours. The finished food for consumption was transferred to the animal-keeping area. The prepared food was stored at 4° C. for no more than 7 days. The approximate energy value of the HFD feed was 516 kcal/100 g (45% fat, 35% carbohydrates, 20% protein).
The metabolic syndrome was modeled by keeping animals on a HFD for 16 weeks. The control group was kept on a standard diet (STD) during this period. Animals had free access to feed and water located in the cage lid.
as §1
The administration volume was 10 ml/kg for drugs administered i.p., 6 μl/animal for i.n. administration and 5 ml/kg for drugs administered p.o.
The animals were weighed weekly on weeks 1-16 of the experiment (1-120 days of the study), during the administration of the tested substances (121-148 days)—three times a week. The bodyweight of a hungry animal immediately before necropsy was taken to calculate the percentage of organ weight to body weight.
Each animal's food and water consumption was evaluated weekly by weighing the grid with food or a bottle of water before and after 24 hours.

TNF-α = TNF-α mRNA expression in LPS-induced primary mouse fibroblasts; assay type: cell-based; details: LPS 0.5 μg/mL 24 h; DLSKEPSISRE 0.05 mg/mL or metformin 1 mM
Procedure: (§2) The study was carried out in primary mouse fibroblasts. Isolation of fibroblasts was carried out with techniques described earlier (See Example 1). Fibroblasts were cultured for 3 days. The following stressors were applied separately: bacterial lipopolysaccharides (LPS), high glucose in the incubation medium, and serum-free incubation medium.
(§3) LPS is a major outer surface membrane component that induces an inflammatory response in cells.
(§4) Isolation of mRNA, synthesis of the first strand of cDNA, and RT-PCR were performed with techniques described earlier (See Example 1). Expression levels of IRS2, TNF-α, IL-6, and GSK3p (WNT-pathway) were analyzed.
(§5) The study was carried out in primary mouse fibroblasts. Isolation of fibroblasts was carried out with techniques described earlier (See Example 1). Incubation of fibroblasts with 100 μM individual peptides and 0.5 μg/mL LPS was carried out for 24 hours. Each treatment group was represented in two biological replicates.
(§6) Isolation of mRNA, synthesis of the first strand of cDNA, and RT-PCR were performed with techniques described earlier (See Example 1). Expression levels of RPL27, TNF-α, IL-6, and IRS2 genes were analyzed.

[3] = test system: C57BL/6 mice on a high-fat diet; assay: Tolerability observations in HFD mice study; assay type: in vivo, mouse; details: metformin 250 mg/kg p.o.
Procedure: as §1
(§7) During necropsy, the body's external state, internal surfaces, the cranial cavity, chest, abdominal and pelvic cavities with organs and tissues located in them, the neck with organs and tissues, the skeleton, and the musculoskeletal system were examined. The organs and tissues were fixed in 10% formalin. Liver and adipose tissue samples were weighed and stored in 10% formalin for subsequent histological analysis.

[4] = test system: C57BL/6 mice on a high-fat diet; assay: Visceral fat weight and adipocyte histology after chronic administration in HFD mice; assay type: in vivo, mouse; details: four weeks
Procedure: as §1
After necropsy, the following internal organs were weighed: adrenal glands, kidneys, liver, pancreas, heart, spleen, and testicles.
as §7, with “Liver and adipose tissue samples were weighed and stored in 10% formalin for subsequent histological analysis.” left out
Microscopic analysis was performed using a DMLA Leica transmitted light microscope (Germany), a Photometrics Cool SNAP cf video camera (USA), and Mekos software (Russia). […] One hundred adipocytes were measured on sections of the visceral fat samples in 15-20 random fields of view.

IL-6 = IL-6 mRNA expression in LPS-induced primary mouse fibroblasts; assay type: cell-based; details: LPS 0.5 μg/mL 24 h; DLSKEPSISRE 0.05 mg/mL or metformin 1 mM
Procedure: as §2, §3, §4, §5, §6

## CN(C)C(=N)N=C(N)N [Metformin]
[1]; 4 weeks, EPSI 5 mg/kg i.p. and i.n.
  glucose concentration in the blood vs HFD control group: decrease
[1]; four weeks, EPSI 5 mg/kg i.n.
  TNF-α concentration in blood serum vs HFD control: reduced
[2]; Metformin 250 mg/kg p.o. daily from day 122, day 122
  Bodyweight during the period the test substance administration: 34.3 ± 0.7 grams
[2]; Metformin 250 mg/kg p.o. daily from day 122, day 124
  Bodyweight during the period the test substance administration: 33.9 ± 0.7 grams
[2]; Metformin 250 mg/kg p.o. daily from day 122, day 126
  Bodyweight during the period the test substance administration: 33.4 ± 0.8 grams
[2]; Metformin 250 mg/kg p.o. daily from day 122, day 129
  Bodyweight during the period the test substance administration: 32.9 ± 0.7 grams
[2]; Metformin 250 mg/kg p.o. daily from day 122, day 131
  Bodyweight during the period the test substance administration: 33.1 ± 0.7 grams
[2]; Metformin 250 mg/kg p.o. daily from day 122, day 133
  Bodyweight during the period the test substance administration: 33.1 ± 0.8 grams
[2]; Metformin 250 mg/kg p.o. daily from day 122, day 136
  Bodyweight during the period the test substance administration: 32.4 ± 1.1 grams
[2]; Metformin 250 mg/kg p.o. daily from day 122, day 138
  Bodyweight during the period the test substance administration: 32.2 ± 1.1 grams
[2]; Metformin 250 mg/kg p.o. daily from day 122, day 141
  Bodyweight during the period the test substance administration: 32.9 ± 0.9 grams
[2]; Metformin 250 mg/kg p.o. daily from day 122, day 144
  Bodyweight during the period the test substance administration: 33.2 ± 1.0 grams
[2]; Metformin 250 mg/kg p.o. daily from day 122, day 147
  Bodyweight during the period the test substance administration: 33.5 ± 1.0 grams
[2]; Week 1
  Weekly food consumption: 458.4 ± 55.4 kcal/kg/day
  Weekly water consumption: 0.1095 ± 0.0109 mL/min/kg
[2]; Week 2
  Weekly food consumption: 758.4 ± 51.4 kcal/kg/day
  Weekly water consumption: 0.1199 ± 0.00944 mL/min/kg
[2]; Week 3
  Weekly food consumption: 567.6 ± 21.3 kcal/kg/day
  Weekly water consumption: 0.1505 ± 0.0169 mL/min/kg
[2]; Week 4
  Weekly food consumption: 709.4 ± 22.7 kcal/kg/day
  Weekly water consumption: 0.182 ± 0.0183 mL/min/kg
[2]; Metformin p.o., chronic 4-week
  decrease in weight compared to values before substance administration: 7.6%
[2]; day 112, baseline, group 5 Metformin p.o.
  Animal body weight before the administration of the tested substances: 36.94 ± 0.954 grams
[2]; metformin chronic administration, compared with EPSI i.n.
  loss of excess body weight (normalized to HFD control): comparable
TNF-α
  LPS-induced expression of TNF-α: similarly
[3]
  death of animals after administration: 2 animals
  deviations in the state of health observed after the first injection: hunching, tremor, weight loss
[4]; Metformin 250 mg/kg p.o.
  decrease in average linear size of visceral fat adipocytes compared to HFD control: 31%
[4]; EPSI 5 mg/kg i.p. and i.n., metformin 250 mg/kg p.o., vs HFD control
  visceral fat (adipose tissue surrounding the epididymis) weight: statistically significant decrease
IL-6
  LPS-induced expression of IL-6: similarly
